From patent US10479854B2, “Conjugate for treating malaria” (priority 2014, dated 2019)

Test system: chloroquine-resistant Plasmodium falciparum strain (D10R)
Assay: In vitro anti-malaria assay (Malstat, lactate dehydrogenase)
Assay type: cell-based
Details: read-out: IC50(chloroquine)
Procedure: In separate experiments, tyrocidine/tryptocidines conjugated to polymers 11 and 12, respectively, were administered at varying concentrations to blood samples containing cells infected with a chloroquine-resistant Plasmodium falciparum strain (D10 resistant mutant denoted D10R, IC50(chloroquine)>100 nM). For comparison purposes, the unconjugated/unmodified natural tyrocidine/tryptocidine mixture was also administered to blood infected with the same chloroquin-resistant malaria strain. FIGS. 16 and 17 show the antimalaria activity and the haemolytic activity of the tyrocidine/tryptocidine-PVP conjugates in comparison with the natural cyclodecapetide mixture. […]
P. falciparum (D10 strain) was cultured and dose-response assays were performed as previously described.^9 Briefly, parasites were cultured under an atmosphere of 3% CO2, 4% O2 and 93% N2 in RPMI-1640 media, supplemented with 25 mM HEPES, 50 mM glucose, 0.65 mM hypoxanthine, 0.048 mg/mL gentamicin, 0.2% (w/v) NaHCO3, 0.5% (w/v) Albumax II and 2% fresh human O^+ erythrocytes obtained from anonymous donors from the Western Cape Blood Blank. […] A 10 μL aliquot from each well was diluted to 100 μL with phosphate buffered saline and analysed at 405 nm, on a plate reader, to determine the quantity of released haemoglobin and haemolytic activity of the conjugates. […]

SMILES: CCN(CC)CCCC(C)Nc1ccnc2cc(Cl)ccc12 (stereo not shown) [chloroquine]
- IC50: > 0.1 µM
